Measured values: US4336397A, “2,4-Dioxo-4-substituted-1-butanoic acid derivatives useful in treating urinary tract calcium oxalate lithiasis” (Merck & Co., Inc., priority 1980, dated 1982)
pIC50: −log10 of the molar value.

Each compound was assayed against T1, pig liver glycolate oxidase (Sus scrofa, UniProt I3LVF1) (assay: Glycolate Oxidase Enzyme Inhibition). Conditions: 25° C., 0.10 M phosphate buffer, pH 7.0, 3 mM EDTA; 2×10^-4 M sodium glycolate; initial rates 1 to 3 minutes, 600 nm.
T1 construct: The enzyme was pig liver glycolate oxidase; from tissue; host or cells: pig liver
T1 sequence (I3LVF1 1-370): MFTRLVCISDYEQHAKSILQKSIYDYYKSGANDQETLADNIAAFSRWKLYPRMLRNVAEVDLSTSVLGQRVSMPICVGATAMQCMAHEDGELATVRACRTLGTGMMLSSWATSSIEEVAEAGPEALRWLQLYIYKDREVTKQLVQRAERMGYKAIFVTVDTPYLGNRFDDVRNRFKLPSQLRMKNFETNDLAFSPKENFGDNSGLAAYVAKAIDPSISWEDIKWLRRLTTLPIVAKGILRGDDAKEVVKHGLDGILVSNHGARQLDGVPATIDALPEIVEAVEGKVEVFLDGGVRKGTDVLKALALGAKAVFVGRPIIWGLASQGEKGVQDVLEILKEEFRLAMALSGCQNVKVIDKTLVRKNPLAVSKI
Assay type: biochemical
Protocol: The usefulness of the compounds of the present invention in treating urinary tract, especially renal, calcium oxalate lithiasis, is shown by the ability of those compounds to inhibit the glycolate oxidase enzyme. […] The activity of the enzyme, in turn, was measured by following the rate of reduction of sodium 2,6-dichlorophenyl-indophenol by sodium glycolate in the presence of the enzyme. The enzyme was pig liver glycolate oxidase. The reaction was followed spectrophotometrically at 600 nm. The assay was conducted at 25° C. in a 0.10 M phosphate buffer, pH 7.0, containing 3 mM EDTA. Initial substrate concentrations were 5×10^-5 M of […] and 2×10^-4 M of sodium glycolate. Reactions were initiated by the addition of enzyme. Initial rates during the period from 1 to 3 minutes after the addition of enzyme were recorded on a Beckman Acta M-VI spectrophotometer. One control was run simultaneously with three reactions, and all initial rates were adjusted to a common control rate. For further details of this procedure, see Randall et al., J. Med. Chem., 22, 6,612 (1979).

SMILES | pIC50
CCCCCCCCCc1ccc(C(=O)CC(=O)C(=O)O)cc1 [2,4-dioxo-4-(4-nonylphenyl)-1-butanoic acid] | 6.17
O=C(O)C(=O)CC(=O)c1ccc(C2CCCCC2)cc1 [4-(4-cyclohexylphenyl)-2,4-dioxo-1-butanoic acid] | 5.60
O=C(O)C(=O)CC(=O)c1ccc(C2CCCc3ccccc32)cc1 (centres unmarked) [4-[4-(1,2,3,4-tetrahydro-1-naphthalenyl)phenyl]-2,4-dioxo-1-butanoic acid] | 5.68

Continued by rising pIC50, values first:

pIC50 | SMILES
6.34 | O=C(O)C(=O)CC(=O)c1ccc(Cc2ccc(Cl)c(Cl)c2)cc1 [4-[4-(3,4-dichlorophenylmethyl)phenyl]-2,4-dioxo-1-butanoic acid]
7.15 | O=C(O)C(=O)CC(=O)c1ccc(-c2ccc(Br)cc2)cc1 [4-[(4'-bromo-1,1'-biphenyl)-4-yl]-2,4-dioxo-1-butanoic acid]
